The text below walks through data of ChEMBL document CHEMBL5543112, “Discovery of CBPD-268 as an Exceptionally Potent and Orally Efficacious CBP/p300 PROTAC Degrader Capable of Achieving Tumor Regression” (J Med Chem, 2024).

Data set [1] deals with Protein cereblon/Histone acetyltransferase p300 (Homo sapiens, UniProt Q09472+Q96SW2). As to the kind of experiment: PROTAC activity at p300/CRBN in human U2OS cells assessed as induction of p300 degradation incubated for 24 hrs by Nan-glo HiBiT lytic assay. The data set is classed as cell-based.
Protein cereblon/Histone acetyltransferase p300, sequence (Q09472 whole entry): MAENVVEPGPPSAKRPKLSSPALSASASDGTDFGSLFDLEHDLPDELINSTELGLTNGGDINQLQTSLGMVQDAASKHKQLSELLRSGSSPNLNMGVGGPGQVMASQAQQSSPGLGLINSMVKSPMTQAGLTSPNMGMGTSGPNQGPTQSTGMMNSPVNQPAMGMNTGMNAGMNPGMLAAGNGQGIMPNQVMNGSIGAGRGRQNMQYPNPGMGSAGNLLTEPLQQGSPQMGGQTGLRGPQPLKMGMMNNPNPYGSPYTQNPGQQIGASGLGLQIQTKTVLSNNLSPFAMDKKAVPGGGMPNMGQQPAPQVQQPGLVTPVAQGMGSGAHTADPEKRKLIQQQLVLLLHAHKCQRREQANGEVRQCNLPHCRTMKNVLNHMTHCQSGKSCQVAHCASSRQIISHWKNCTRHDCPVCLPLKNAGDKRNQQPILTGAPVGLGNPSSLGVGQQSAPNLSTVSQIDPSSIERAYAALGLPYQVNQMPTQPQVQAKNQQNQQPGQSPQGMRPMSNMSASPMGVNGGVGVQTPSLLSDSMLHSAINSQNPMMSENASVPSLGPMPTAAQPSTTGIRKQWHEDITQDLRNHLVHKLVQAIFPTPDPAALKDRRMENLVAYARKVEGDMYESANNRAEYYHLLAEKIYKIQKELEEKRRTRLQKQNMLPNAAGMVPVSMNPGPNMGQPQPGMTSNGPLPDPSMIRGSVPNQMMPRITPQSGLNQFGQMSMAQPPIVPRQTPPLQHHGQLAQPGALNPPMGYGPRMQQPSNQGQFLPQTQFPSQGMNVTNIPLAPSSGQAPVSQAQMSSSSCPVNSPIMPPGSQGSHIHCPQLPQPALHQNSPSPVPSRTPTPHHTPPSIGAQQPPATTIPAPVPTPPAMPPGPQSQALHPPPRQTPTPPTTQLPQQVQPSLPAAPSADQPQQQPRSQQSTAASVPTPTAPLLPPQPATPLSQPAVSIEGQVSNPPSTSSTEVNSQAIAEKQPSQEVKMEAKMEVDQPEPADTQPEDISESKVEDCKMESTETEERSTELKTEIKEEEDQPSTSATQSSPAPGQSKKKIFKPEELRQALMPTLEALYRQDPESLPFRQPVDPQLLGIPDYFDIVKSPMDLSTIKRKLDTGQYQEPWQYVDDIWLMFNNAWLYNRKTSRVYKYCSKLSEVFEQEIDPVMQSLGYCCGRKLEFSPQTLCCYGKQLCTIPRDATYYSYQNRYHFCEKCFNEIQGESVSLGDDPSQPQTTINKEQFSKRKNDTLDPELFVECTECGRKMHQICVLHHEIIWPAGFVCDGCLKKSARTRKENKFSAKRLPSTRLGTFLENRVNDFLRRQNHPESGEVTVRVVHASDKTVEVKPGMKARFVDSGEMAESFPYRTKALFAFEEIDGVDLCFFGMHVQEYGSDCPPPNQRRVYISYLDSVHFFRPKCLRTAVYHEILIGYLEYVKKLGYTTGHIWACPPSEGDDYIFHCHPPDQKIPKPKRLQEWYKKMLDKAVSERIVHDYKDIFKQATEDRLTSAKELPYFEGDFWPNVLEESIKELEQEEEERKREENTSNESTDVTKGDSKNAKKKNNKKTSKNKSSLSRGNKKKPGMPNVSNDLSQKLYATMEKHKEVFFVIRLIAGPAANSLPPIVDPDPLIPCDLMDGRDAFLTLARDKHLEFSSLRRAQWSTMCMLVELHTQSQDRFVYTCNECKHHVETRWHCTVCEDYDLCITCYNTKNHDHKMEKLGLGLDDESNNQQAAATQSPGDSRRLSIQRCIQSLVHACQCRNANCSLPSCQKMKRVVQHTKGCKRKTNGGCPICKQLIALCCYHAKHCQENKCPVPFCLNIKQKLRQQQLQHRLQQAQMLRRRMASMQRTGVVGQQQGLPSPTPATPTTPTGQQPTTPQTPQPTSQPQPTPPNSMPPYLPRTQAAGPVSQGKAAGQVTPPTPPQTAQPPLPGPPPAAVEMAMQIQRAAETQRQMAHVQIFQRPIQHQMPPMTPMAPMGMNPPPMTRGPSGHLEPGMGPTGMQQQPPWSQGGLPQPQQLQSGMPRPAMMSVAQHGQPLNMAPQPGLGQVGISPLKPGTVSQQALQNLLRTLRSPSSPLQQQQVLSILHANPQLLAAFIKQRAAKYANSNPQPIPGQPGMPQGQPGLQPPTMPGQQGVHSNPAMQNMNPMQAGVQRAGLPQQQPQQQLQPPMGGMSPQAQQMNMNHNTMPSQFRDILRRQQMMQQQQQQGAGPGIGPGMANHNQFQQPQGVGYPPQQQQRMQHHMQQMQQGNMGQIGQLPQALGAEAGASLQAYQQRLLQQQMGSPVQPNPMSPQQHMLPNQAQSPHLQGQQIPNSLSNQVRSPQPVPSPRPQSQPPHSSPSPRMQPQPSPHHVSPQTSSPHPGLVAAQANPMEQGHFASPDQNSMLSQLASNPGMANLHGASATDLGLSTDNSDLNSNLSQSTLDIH
Protein cereblon/Histone acetyltransferase p300, sequence (Q96SW2 whole entry): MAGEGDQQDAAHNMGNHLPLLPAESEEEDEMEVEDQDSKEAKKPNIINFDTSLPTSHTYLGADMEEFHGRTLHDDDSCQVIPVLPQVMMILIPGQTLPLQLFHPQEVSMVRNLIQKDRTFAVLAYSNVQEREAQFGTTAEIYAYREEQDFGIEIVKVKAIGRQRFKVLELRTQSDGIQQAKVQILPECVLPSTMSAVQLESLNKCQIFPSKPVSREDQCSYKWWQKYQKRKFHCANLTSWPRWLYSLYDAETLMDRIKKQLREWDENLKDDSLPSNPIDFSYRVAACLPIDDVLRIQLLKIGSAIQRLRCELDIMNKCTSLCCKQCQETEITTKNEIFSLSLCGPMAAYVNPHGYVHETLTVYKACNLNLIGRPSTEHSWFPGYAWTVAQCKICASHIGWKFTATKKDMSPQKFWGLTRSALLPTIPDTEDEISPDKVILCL
Data set [2] addresses Protein cereblon/CREB-binding protein (Homo sapiens, UniProt Q92793+Q96SW2). Briefly: PROTAC activity at CBP/CRBN in human U2OS cells assessed as induction of CBP degradation incubated for 24 hrs by Nan-glo HiBiT lytic assay. It counts as cell-based.
The subject of a further data set is VCaP. Briefly: Antiproliferative activity against human VCaP cells assessed as cell growth inhibition incubated for 4 days by celtiter-glo luminescent assay. The following applies: 96 h.
Data set [3] is described as follows: Metabolic stability in mouse liver microsome assessed as half life measured upto 60 mins in presence of NADPH by LC-MS/MS analysis. The note with it: liver microsomes. The data set is classed as ADME.
Data set [4] can be described thus: Drug concentration in rat plasma at 3 mg/kg, po measured at 6 hrs by LC-MS/MS analysis. The data set is classed as ADME, organism-based.
Data set [5] in a line: Drug concentration in rat plasma at 3 mg/kg, po measured at 30 mins by LC-MS/MS analysis. The data set is classed as ADME, organism-based.
A short description of data set [6]: Drug concentration in rat plasma at 3 mg/kg, po measured at 1 hr by LC-MS/MS analysis. It counts as ADME, organism-based.
Data set [7] in a line: Drug concentration in rat plasma at 3 mg/kg, po measured at 5 mins by LC-MS/MS analysis. It counts as ADME, organism-based.
Data set [8] can be described thus: Volume of distribution at steady state in Sprague-Dawley rat at 1 mg/kg, iv measured upto 24 hrs by LC-MS/MS analysis. The data set is classed as ADME, organism-based. The following applies: in vivo.
Data set [9] can be described thus: Metabolic stability in rat liver microsome assessed as half life measured upto 60 mins in presence of NADPH by LC-MS/MS analysis. It counts as ADME. The following applies: liver microsomes.
Data set [10] can be described thus: Drug concentration in rat plasma at 3 mg/kg, po measured at 2 hrs by LC-MS/MS analysis. It counts as ADME, organism-based.
Data set [11] can be described thus: AUC (0 to t) in Sprague-Dawley rat at 1 mg/kg, iv measured upto 24 hrs by LC-MS/MS analysis. The data set is classed as ADME, organism-based. The note with it: in vivo.
The nature of data set [12]: Half life in Sprague-Dawley rat at 1 mg/kg, iv measured upto 24 hrs by LC-MS/MS analysis. It counts as ADME, organism-based. The note with it: in vivo.
Data set [13] is described as follows: Metabolic stability in human liver microsome assessed as half life measured upto 60 mins in presence of NADPH by LC-MS/MS analysis. It counts as ADME. The following applies: liver microsomes.
Data set [14] is described as follows: Drug concentration in rat plasma at 3 mg/kg, po measured at 4 hrs by LC-MS/MS analysis. It counts as ADME, organism-based.
Data set [15] is described as follows: Drug concentration in rat plasma at 3 mg/kg, po measured at 15 mins by LC-MS/MS analysis. It counts as ADME, organism-based.
For the next data set, the system named is CWR22R. As to the kind of experiment: Antiproliferative activity against human 22Rv1 cells assessed as cell growth inhibition incubated for 4 days by celtiter-glo luminescent assay. The note with it: 22Rv1, 96 h.
A further data set addresses CREB-binding protein (Homo sapiens, UniProt Q92793). As to the kind of experiment: Binding affinity to CBP (unknown origin) assessed as dissociation constant by ITC analysis.
The target in data set [16] is Histone acetyltransferase p300 (Homo sapiens, UniProt Q09472). As to the kind of experiment: Binding affinity to p300 (unknown origin) assessed as dissociation constant by ITC analysis.
Histone acetyltransferase p300, sequence (Q09472 whole entry): as the sequence (Q09472 whole entry) above
In data set [17] the target is Bromodomain-containing protein 4 (Homo sapiens, UniProt O60885). As to the kind of experiment: Binding affinity to BRD4 (unknown origin) assessed as dissociation constant by ITC analysis.
Data set [18] in a line: Drug concentration in rat plasma at 3 mg/kg, po measured at 24 hrs by LC-MS/MS analysis. It counts as ADME, organism-based.
Another data set relates to LNCaP. As to the kind of experiment: Antiproliferative activity against human LNCaP cells assessed as cell growth inhibition incubated for 4 days by celtiter-glo luminescent assay. The note with it: 96 h.

The structures appear in SMILES notation.

As for `CC(=O)N1CCc2c(c(N3CCCc4cc(-c5cnn(C)c5)c(C(F)F)cc43)nn2C2CCN(C(=O)CCN3Cc4cc5c(cc4C3)C(=O)N(C3CCC(=O)NC3=O)C5=O)CC2)C1` (configuration not stated), the DC50 in data set [1] and in data set [2] was over 1000 nM in each case.
With `CO[C@H]1CC[C@H](n2c([C@@H]3CCCC(=O)N3c3ccc(F)c(F)c3)nc3cc(-c4c(C)noc4C)ccc32)CC1` [INOBRODIB], in the data set with VCaP, the IC50 was determined as 195 nM.
In the case of `CC(=O)N1CCc2c(c(N3CCCc4ccc(C(F)F)cc43)nn2C2CCN(C(=O)CN3Cc4cc5c(cc4C3)C(=O)N(C3CCC(=O)NC3=O)C5=O)CC2)C1` (configuration not stated), the half-life in data set [3], in data set [9] and in data set [13] was over 1 h each time. For the same molecule, the concentration at 6 h in [4] was 0.9 ng/mL. In data set [5], the concentration at 0.5 h was 0.4 ng/mL. In [6], this molecule displayed a concentration at 1 h of 0.3 ng/mL. Moreover, the concentration at 5 min in [7] was 1 ng/mL. The Vdss in data set [8] stood at 1.7 L/kg. For the same molecule, the concentration at 2 h in data set [10] stood at 0.4 ng/mL. This molecule had an area under the curve AUC(0-t) at 24 h in [11] of 88.7 ng·h/mL. The DC50 in data set [1] was found to be 204 nM; in data set [2], 519 nM. The molecule further returned a t1/2 in data set [12] of 1.1 h. The concentration at 4 h in data set [14] was found to be 0.7 ng/mL. The concentration at 0.25 h in data set [15] turned out to be 0.5 ng/mL.
`CNC(=O)c1ccc(N2C(=S)N(c3ccc(C#N)c(C(F)(F)F)c3)C(=O)C2(C)C)cc1F` [ENZALUTAMIDE]: the IC50 with CWR22R and with VCaP was over 1000 nM throughout.
On to `CC(=O)N1CCc2c(c(N3CCCc4cc(-c5cnn(C)c5)c(C(F)F)cc43)nn2C2CCN(C(=O)N3Cc4cc5c(cc4C3)C(=O)N(C3CCC(=O)NC3=O)C5=O)CC2)C1` (configuration not stated), for which the DC50 in data set [1] and in data set [2] was over 1000 nM throughout.
`CC(=O)N1CCc2c(c(N3CCCc4cc(-c5cccs5)c(C(F)F)cc43)nn2C2CCN(C(=O)CN3Cc4cc5c(cc4C3)C(=O)N(C3CCC(=O)NC3=O)C5=O)CC2)C1` (configuration not stated): the results for the DC50 in data set [1] and in data set [2] were 33 nM and 24 nM, respectively.
On to `N#Cc1ccc(O[C@H]2CC[C@H](NC(=O)c3ccc(N4CCC(CN5CCN(c6cc7c(cc6F)C(=O)N(C6CCC(=O)NC6=O)C7=O)CC5)CC4)nn3)CC2)cc1Cl` (some centres not stated) [BAVDEGALUTAMIDE], for which the 50% inhibitory concentration (IC50) with VCaP came to 125 nM.
With `CC(=O)N1CCc2c(c(N3CCCc4cc(Br)c(C(F)F)cc43)nn2C2CCN(C(=O)CN3Cc4cc5c(cc4C3)C(=O)N(C3CCC(=O)NC3=O)C5=O)CC2)C1` (configuration not stated), the DC50 worked out at 17 nM in [1] and 64 nM in data set [2].
The matching figures for `CC(=O)N1CCc2c(c(N3CCCc4cc(-c5cnn(C)c5)c(C(F)F)cc43)nn2C2CCN(C(=O)CCCN3Cc4cc5c(cc4C3)C(=O)N(C3CCC(=O)NC3=O)C5=O)CC2)C1` (configuration not stated): 105 nM and 368 nM.
The like results for `CC(=O)N1CCc2c(c(N3CCCc4cc(-c5ccccc5)c(C(F)F)cc43)nn2C2CCN(C(=O)CN3Cc4cc5c(cc4C3)C(=O)N(C3CCC(=O)NC3=O)C5=O)CC2)C1` (configuration not stated) were, in that order, 23 nM and 31 nM.
On to `CC(=O)N1CCc2c(c(N3CCCc4cc(-c5cnn(C)c5)c(C(F)F)cc43)nn2C2CCN(C(=O)CCCCN3Cc4cc5c(cc4C3)C(=O)N(C3CCC(=O)NC3=O)C5=O)CC2)C1` (configuration not stated), for which the DC50 in data set [1] was determined as 46 nM; in data set [2] it was 168 nM.
The like results for `CC(=O)N1CCc2c(c(N3CCCc4cc(C5CCCCC5)c(C(F)F)cc43)nn2C2CCN(C(=O)CN3Cc4cc5c(cc4C3)C(=O)N(C3CCC(=O)NC3=O)C5=O)CC2)C1` (configuration not stated) were, in that order, 39 nM and 37 nM.
In the case of `CC(=O)N1CCc2c(c(N3CCCc4cc(-c5ccc(F)cc5)c(C(F)F)cc43)nn2C2CCN(C(=O)CN3Cc4cc5c(cc4C3)C(=O)N(C3CCC(=O)NC3=O)C5=O)CC2)C1` (configuration not stated), the DC50 in [1] came out at 41 nM; in data set [2], 36 nM.
The like results for `CC(=O)N1CCc2c(c(N3CCCc4cc(-c5cnn(C)c5)c(C(F)F)cc43)nn2C2CCN(C(=O)CCCCCN3Cc4cc5c(cc4C3)C(=O)N(C3CCC(=O)NC3=O)C5=O)CC2)C1` (configuration not stated) were, in that order, 108 nM and 362 nM.
Turning to `CNC(=O)N1CCc2c(c(N3CCCc4cc(-c5cnn(C)c5)c(C(F)F)cc43)nn2C2CCOCC2)C1`, the Kd on CREB-binding protein amounted to 0.9 nM; in data set [16], 1.2 nM; in [17], 4.6 nM.
As for `CCc1cc2c(cc1C(F)F)N(c1nn(C3CCN(C(=O)CN4Cc5cc6c(cc5C4)C(=O)N(C4CCC(=O)NC4=O)C6=O)CC3)c3c1CN(C(C)=O)CC3)CCC2` (configuration not stated), the DC50 was 18 nM in [1] and 89 nM in data set [2].
Take `CC(=O)N1CCc2c(c(N3CCCc4cc(-c5cnn(C)c5)c(C(F)F)cc43)nn2C2CCN(CC(=O)N3Cc4cc5c(cc4C3)C(=O)N(C3CCC(=O)NC3=O)C5=O)CC2)C1` (configuration not stated): the DC50 in data set [1] and in data set [2] was over 1000 nM throughout.
On to `CC(=O)N1CCc2c(c(N3CCCc4cc(C5CC5)c(C(F)F)cc43)nn2C2CCN(C(=O)CN3Cc4cc5c(cc4C3)C(=O)N(C3CCC(=O)NC3=O)C5=O)CC2)C1` (configuration not stated), for which the DC50 in data set [1] came out at 29 nM; in data set [2], 52 nM.
The matching figures for `CC(=O)N1CCc2c(c(N3CCCc4cc(C)c(C(F)F)cc43)nn2C2CCN(C(=O)CN3Cc4cc5c(cc4C3)C(=O)N(C3CCC(=O)NC3=O)C5=O)CC2)C1` (configuration not stated): 9.6 nM and 55 nM.
`CC(=O)N1CCc2c(c(N3CCCc4cc(-c5cnn(C)c5)c(C(F)F)cc43)nn2C2CCN(C(=O)CN3Cc4cc5c(cc4C3)C(=O)N(C3CCC(=O)NC3=O)C5=O)CC2)C1` (configuration not stated): the half-life in [3] was 0.317 h; in [9] it was over 1 h; in [13], 0.163 h. The concentration at 5 min in [7] came out at 3.7 ng/mL. This molecule returned a Vdss in [8] of 6.3 L/kg. This molecule displayed a concentration at 24 h in data set [18] of 4.6 ng/mL. This molecule registered an exposure AUC(0-t) at 24 h in [11] of 166 ng·h/mL. Besides, in data set [12], the t1/2 is 1.3 h. In data set [15], this molecule gave a concentration at 0.25 h of 1.9 ng/mL.
`CC(=O)N1CCc2c(c(N3CCCc4cc(C(C)C)c(C(F)F)cc43)nn2C2CCN(C(=O)CN3Cc4cc5c(cc4C3)C(=O)N(C3CCC(=O)NC3=O)C5=O)CC2)C1` (configuration not stated): the DC50 turned out to be 40 nM in data set [1] and 57 nM in [2].
On to `CC(=O)N1CCc2c(c(N3CCCc4cc(-c5cnn(C)c5)c(C(F)F)cc43)nn2C2CCOCC2)C1`, for which the Kd at CREB-binding protein stood at 1.1 nM; in data set [16] it was 1.3 nM; in [17] it was 200 nM. Besides, the IC50 in the data set on LNCaP, in the data set with CWR22R and in the data set with VCaP was over 1000 nM in each case.
